Data published in patent US20100137399A1, “PREVENTIVE AND/OR THERAPEUTIC AGENT FOR URINE COLLECTION DISORDER ACCOMPANYING LOWER URINARY TRACT OBSTRUCTION” (KISSEI PHARMACEUTICAL CO., LTD., priority 2004, published 2010).
Structures can show the parent of a compound that is named as a salt.

Legend:
[1] = system: patients with urinary disturbance associated with benign prostatic hyperplasia; test: Placebo-control parallel groups-comparing double blind clinical trial, I-PSS changes from pre-administration; assay type: in vivo, human; settings: for I-PSS (irritative symptom) Changes / I-PSS (obstructive symptom) Changes / Total I-PSS Changes: oral, 12 weeks
Excerpt: Using patients with urinary disturbance associated with benign prostatic hyperplasia as the subjects, the clinical effects of silodosin and tamsulosin hydrochloride were examined by a placebo-control parallel groups-comparing double blind trial, using changes in the total I-PSS (International Prostate Symptom Score) from pre-administration as the primary endpoint. The I-PSS consists of 3 items of irritative symptoms representing the symptoms at the time of storing (Nocturia, Urgency and Urination within 2 hours) and 4 items of obstructive symptoms representing the symptoms at the time of voiding (Sensation of residual urine, Intermittency of urinary stream, Power of urinary stream and Straining during urination), prepared for use in the judgment of various therapeutic effects on the dysuria associated with benign prostatic hyperplasia, but this is not specific to prostatic hyperplasia and can also be used for the judgment of therapeutic effects on female dysuria and the like (Non-patent Reference 1).
Effects of silodosin (4 mg per once, twice a day) and tamsulosin hydrochloride (0.2 mg per once, once a day) on the storage disorder were examined by the following method.
Patients to be tested: 455 patients with dysuria associated with benign prostatic hyperplasia
Administration method: oral administration for 12 weeks
Primary endpoints: total score of I-PSS, I-PSS irritative symptom score and I-PSS obstructive symptom score
Analysis method: all of the finally evaluated cases were stratified into groups of patients having a total score of less than 6 and that of 6 or more regarding the “Urination within 2 hours” and “Urgency” of I-PSS, and average values of respective changes in the total score of I-PSS, I-PSS irritative symptom score and I-PSS obstructive symptom score before and after the administration were calculated for each group.
Administration groups: silodosin group (116 cases having a pre-administration score of less than 6, and 58 cases having that of 6 or more), tamsulosin group (135 cases having a pre-administration score of less than 6, and 57 cases having that of 6 or more), a placebo group (61 cases having a pre-administration score of less than 6, and 28 cases having that of 6 or more)
Not at all: 0 point; Less than 1 time in 5: 1 point; Less than 1 time in 2: 2 points; About 1 time in 2: 3 points; More than 1 time in 2: 4 points; Almost always: 5 points.
None: 0 point; 1 time: 1 point; 2 times: 2 points; 3 times: 3 points; 4 times: 4 points; 5 times or more: 5 points.

α1A-AR subtype = biological target: T1, α1A-AR subtype (Homo sapiens, UniProt P35348); settings: Patent Reference 3 and Non-patent Reference 5; cited from earlier work
T1 sequence (P35348 1-466): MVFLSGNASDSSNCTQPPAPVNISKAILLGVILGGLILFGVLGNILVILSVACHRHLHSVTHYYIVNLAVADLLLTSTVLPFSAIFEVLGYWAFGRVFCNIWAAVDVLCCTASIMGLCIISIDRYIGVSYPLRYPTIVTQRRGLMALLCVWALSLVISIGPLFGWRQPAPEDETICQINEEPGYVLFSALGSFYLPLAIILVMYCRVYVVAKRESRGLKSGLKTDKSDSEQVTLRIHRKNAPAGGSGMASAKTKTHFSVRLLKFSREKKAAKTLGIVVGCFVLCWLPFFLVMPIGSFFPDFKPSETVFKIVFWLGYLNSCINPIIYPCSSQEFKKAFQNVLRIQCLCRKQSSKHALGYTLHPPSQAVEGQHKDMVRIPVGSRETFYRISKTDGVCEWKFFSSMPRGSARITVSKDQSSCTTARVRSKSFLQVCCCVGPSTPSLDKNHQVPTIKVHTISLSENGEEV

α1B-AR subtype = biological target: T2, α1B-AR subtype (Homo sapiens, UniProt P35368); settings: Patent Reference 3 and Non-patent Reference 5; cited from earlier work
T2 sequence (P35368 1-520): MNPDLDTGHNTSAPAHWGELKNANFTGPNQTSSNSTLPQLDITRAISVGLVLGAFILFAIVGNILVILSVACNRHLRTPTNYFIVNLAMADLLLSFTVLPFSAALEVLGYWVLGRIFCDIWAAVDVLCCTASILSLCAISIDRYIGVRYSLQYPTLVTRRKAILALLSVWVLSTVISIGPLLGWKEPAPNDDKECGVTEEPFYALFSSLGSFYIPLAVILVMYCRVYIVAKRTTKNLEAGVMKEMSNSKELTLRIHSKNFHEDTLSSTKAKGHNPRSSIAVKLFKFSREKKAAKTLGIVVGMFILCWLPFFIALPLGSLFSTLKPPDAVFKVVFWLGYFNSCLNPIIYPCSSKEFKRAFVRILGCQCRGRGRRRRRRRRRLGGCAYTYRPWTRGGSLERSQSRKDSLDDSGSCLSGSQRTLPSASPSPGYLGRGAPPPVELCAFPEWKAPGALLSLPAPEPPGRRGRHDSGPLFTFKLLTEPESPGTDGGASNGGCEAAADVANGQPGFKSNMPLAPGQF

α1D-AR subtype = biological target: T3, α1D-AR subtype (Homo sapiens, UniProt P25100); settings: Patent Reference 3 and Non-patent Reference 5; cited from earlier work
T3 sequence (P25100 1-572): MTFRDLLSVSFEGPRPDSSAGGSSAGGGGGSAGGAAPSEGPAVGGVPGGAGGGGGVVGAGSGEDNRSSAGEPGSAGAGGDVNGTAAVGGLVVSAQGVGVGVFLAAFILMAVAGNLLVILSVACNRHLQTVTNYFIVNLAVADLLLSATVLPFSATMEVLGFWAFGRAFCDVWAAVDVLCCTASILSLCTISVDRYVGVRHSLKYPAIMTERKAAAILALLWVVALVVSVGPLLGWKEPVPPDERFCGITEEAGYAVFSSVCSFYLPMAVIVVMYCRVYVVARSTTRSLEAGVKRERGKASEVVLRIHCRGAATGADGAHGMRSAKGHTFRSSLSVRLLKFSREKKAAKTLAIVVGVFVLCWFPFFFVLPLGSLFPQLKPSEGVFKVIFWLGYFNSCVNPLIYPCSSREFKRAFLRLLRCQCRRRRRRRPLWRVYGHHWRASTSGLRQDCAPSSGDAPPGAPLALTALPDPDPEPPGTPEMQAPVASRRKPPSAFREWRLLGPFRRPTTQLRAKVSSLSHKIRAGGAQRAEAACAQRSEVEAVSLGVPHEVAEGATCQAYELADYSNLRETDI

[2] = Overall (all patients), average change
[3] = patients with pre-administration total score of "Urination within 2 hours" and "Urgency" less than 6, average change before/after administration
[4] = pre-administration score 6 or more, average change
[5] = pre-administration score less than 6, average change

| Compound | I-PSS (irritative symptom) Changes [1, 2] | I-PSS (obstructive symptom) Changes [1, 2] | Total I-PSS Changes [1, 2] | Total I-PSS Changes [1, 3] | I-PSS (irritative symptom) Changes [1, 4] | I-PSS (obstructive symptom) Changes [1, 4] | Total I-PSS Changes [1, 4] | I-PSS (irritative symptom) Changes [1, 5] | I-PSS (obstructive symptom) Changes [1, 5] | Effect on I-PSS irritative symptom score in patients showing storage disorders (in words) ([1]; particularly patients with 6 or more total score of "Urination within 2 hours" and "Urgency" at pre-administration) | Action upon α1A-AR subtype (in words) (α1A-AR subtype) | Inverse agonist activity (in words) (α1A-AR subtype) | Action upon α1B-AR subtype (in words) (α1B-AR subtype) | Action upon α1D-AR subtype (in words) (α1D-AR subtype) |
| --- | --- | --- | --- | --- | --- | --- | --- | --- | --- | --- | --- | --- | --- | --- |
| CCOc1ccccc1OCCN[C@H](C)Cc1ccc(OC)c(S(N)(=O)=O)c1 [Tamsulosin, tamsulosin hydrochloride, reference compound] | −2.1 | −4.8 | −6.8 | −5.9 | −3.9 | −5.2 | −9.1 | −1.3 | −4.6 | – | – | – | – | – |
| C[C@H](Cc1cc2c(c(C(N)=O)c1)N(CCCO)CC2)NCCOc1ccccc1OCC(F)(F)F [Silodosin, (−)-1-(3-hydroxypropyl)-5-((2R)-2-{[2-({2-[(2,2,2-trifluoroethyl)-oxy]phenyl}oxy)ethyl]amino}propyl)2,3-dihydro-1H-indole-7-carboxamide] | −2.5 | −5.8 | −8.3 | −6.8 | −4.3 | −7.1 | −11.3 | −1.6 | −5.2 | has the effect to improve I-PSS irritative symptom score | selectively acts | does not show inverse agonist activity | hardly acts | hardly acts |
